Results as given in patent publication US20250163057A1, “DCN-1 MODULATING COMPOUNDS AND METHODS OF USE THEREOF” (Cellarity, Inc., priority 2023, published 2025).

Assays:
Assay type in all cases: binding
[1] = target: DCN1 protein (Homo sapiens (Human), UniProt Q96GG9); test: Intact Protein MS Analysis with the RapidFire-TOF System (covalent adduct formation); conditions: MS Emax; 400 nM DCN1, 3 hours at room temperature
Outline: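 Tag-cleaved human DCN1 (400 nM) expressed in E. coli, in 25 mM Tris-HCl, 200 mM NaCl, 1 mM DTT, was incubated with 11 compound concentrations for 3 h at room temperature and quenched with 0.2% formic acid. Intact-protein Q-TOF MS with deconvolution detected the compound adduct mass.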

[2] = target: DCN1 (DCUND1) protein PONY domain (Homo sapiens (Human), UniProt Q96GG9); test: Off-rate measurement of reversible covalent molecules (jump dilution TR-FRET with Cy5 probe); conditions: for Category: binding mode category from off-rate assay; for residence time: inverse of rate constant K; for residence time / half-life: jump dilution TR-FRET; for koff: jump dilution, Cy5 covalent probe 150 nM, TR-FRET; for half-life: ln(2)/K
DCN1 (DCUND1) protein PONY domain, sequence (Q96GG9 60-248): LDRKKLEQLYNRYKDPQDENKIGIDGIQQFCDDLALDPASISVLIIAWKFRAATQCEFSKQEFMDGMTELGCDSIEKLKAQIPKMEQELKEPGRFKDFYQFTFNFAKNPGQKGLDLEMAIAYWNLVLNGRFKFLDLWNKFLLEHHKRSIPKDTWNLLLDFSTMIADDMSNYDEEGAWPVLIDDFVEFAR

[3] = target: DCN2 (DCUND2) protein PONY domain (Homo sapiens (Human), UniProt Q6PH85); test: Measurement of Kinact/KI in the DCN2 TR-FRET Assay; conditions: for kinact/KI: read-out: Kinact/KI (converted); for Ki / kinact: time-dependent IC50 over 24 hrs; for kinact: read-out: Kinact (converted)
DCN2 (DCUND2) protein PONY domain, sequence (Q6PH85 60-248): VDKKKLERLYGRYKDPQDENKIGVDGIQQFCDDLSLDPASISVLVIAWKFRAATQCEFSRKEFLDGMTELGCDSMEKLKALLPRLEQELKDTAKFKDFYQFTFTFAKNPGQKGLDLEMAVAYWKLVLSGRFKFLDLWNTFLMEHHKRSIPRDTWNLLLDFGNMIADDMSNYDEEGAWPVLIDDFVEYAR
Procedure: A TR-FRET Assay was performed to evaluate the ability of the compounds to bind DCN-2.
The time resolved—Forster's resonance energy transfer (TR-FRET) assay was designed following the protocol established in (Scott et al., Nat Chem Biol. 2017 August; 13(8): 850-857). A recombinant form of the DCN2 (DCUND2) protein PONY domain was produced using an E. coli expression system at Viva Biotech China. The DCN2 protein was biotinylated (EZ sulfo-NHS-LC-biotin; Thermofisher) for labeling with 2.5 nM streptavidin terbium (Tb) cryptate in the reaction. The probe was changed to a non-covalent DCN1 inhibitor labeled with carboxyfluorescein (FAM; Zhou et al, Nat Commun. 2017; 8: 1150). Buffer conditions were modified to enhance protein stability by replacing TritonX with 0.05% Tween20 and increasing NaCl to 200 mM. The compounds were screened against 0.31 nM DCN1 and 40 nM FAM-labeled probe in a 40 ul reaction volume. The TR-FRET ratio between Tb-DCN1 and the FAM-labeled probe was measured in a 384-well opti-plate (Perkin Elmer) using a plate reader (BMG) at after treatment with compound (final DMSO concentration of 0.1%). The ratio was normalized to the high (DCN1 and FAM-probe) and low (DCN1 and no probe) controls for a readout of % activity (=100*(x−low)/(high−low)).
The Kinact and KI measurements were taken to allow for continuous reads over 24 hrs. Plates were read every 5 min up to 1 hr, every 15 min up to 5 hr, and every hour up to […]. Kinact and KI were calculated based on the following equations (Krippendorff B F, et al. Mechanism-based inhibition: deriving K(I) and k(inact) directly from time-dependent IC(50) values. J BiomolScreen. 2009; Mons E et al. A Comprehensive Guide for Assessing Covalent Inhibition in Enzymatic Assays Illustrated with Kinetic Simulations. CurrProtoc. 2022) where the KM of the probe against DCN2 is 21.62 nM. The Kinact and KI values could be estimated from the tight curves of the IC50 values over time.

DCN1 protein, sequence (Q96GG9 whole entry): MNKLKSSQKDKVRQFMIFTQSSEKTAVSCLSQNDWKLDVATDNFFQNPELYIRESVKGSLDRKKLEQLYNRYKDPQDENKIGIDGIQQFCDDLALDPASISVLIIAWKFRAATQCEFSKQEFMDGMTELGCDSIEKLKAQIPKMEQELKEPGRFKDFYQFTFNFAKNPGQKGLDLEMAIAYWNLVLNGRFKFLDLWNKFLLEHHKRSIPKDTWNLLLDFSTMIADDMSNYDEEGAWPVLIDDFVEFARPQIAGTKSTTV

Q: With `CCN1C(=O)[C@@H](NC(=O)c2cccc(C(F)(F)F)c2)[C@@H](c2ccc(F)cc2)c2c(C(=O)N3CCC[C@H]3C#N)nn(C3CCOCC3)c21` [Compound I-350] as the compound, how does the “% Adduct Formation” value [1] read?
A: ++ (MS Emax % adduct formation greater than 30.0 and less than or equal to 80.0)

Q: What about the Category [2] of the same compound?
A: slow reversible

Q: And the residence time [2]?
A: 699 min

Q: And the koff [2]?
A: 2.64e-05 s⁻¹

Q: What about the half-life [2] of the same compound?
A: 8.07 h

Q: And the kinact/KI [3]?
A: 45000 M⁻¹ s⁻¹

Q: What about the Ki [3] of the same compound?
A: 92.9 nM

Q: What about the kinact [3] of the same compound?
A: 0.00417 s⁻¹

Q: `CCN1C(=O)[C@@H](NC(=O)c2cccc(C(F)(F)F)c2)[C@@H](c2ccc(F)cc2)c2c(NC(=O)C3=CCC3)nn(-c3ccccc3)c21` (racemic) [Compound I-152] was tested. Which “% Adduct Formation” value [1] did it give?
A: + (MS Emax % adduct formation greater than or equal to 0.0 and less than or equal to 30.0)

Q: `CCN1C(=O)[C@@H](NC(=O)c2cccc(C(F)(F)F)c2)[C@@H](c2ccc(F)cc2)c2c(C(=O)N3CCNC[C@H]3C#N)nn(C3CCOCC3)c21` [Compound I-363, N-((4S,5S)-3-((S)-2-cyanopiperazine-1-carbonyl)-7-ethyl-4-(4-fluorophenyl)-6-oxo-1-(tetrahydro-2H-pyran-4-yl)-4,5,6,7-tetrahydro-1H-pyrazolo[3,4-b]pyridin-5-yl)-3-(trifluoromethyl)benzamide] was tested. Which “% Adduct Formation” value [1] did it give?
A: +++ (MS Emax % adduct formation greater than 80.0 and less than or equal to 100.0)

Q: What about the Category [2] of the same compound?
A: slow reversible

Q: And the kinact/KI [3]?
A: 263000 M⁻¹ s⁻¹

Q: What about the Ki [3] of the same compound?
A: 17.4 nM

Q: What about the kinact [3] of the same compound?
A: 0.00459 s⁻¹

Q: How did the Category [2] turn out when `CCc1cccc(C(=O)N[C@@H]2C(=O)N(CC)c3c(c(C(=O)N4[C@H](C#N)C[C@H]5C[C@H]54)nn3C3CCOCC3)[C@@H]2C2CC2)c1` [Compound I-552, N-((4S,5S)-3-((1R,3S,5R)-3-cyano-2-azabicyclo[3.1.0]hexane-2-carbonyl)-4-cyclopropyl-7-ethyl-6-oxo-1-(tetrahydro-2H-pyran-4-yl)-4,5,6,7-tetrahydro-1H-pyrazolo[3,4-b]pyridin-5-yl)-3-ethylbenzamide] was run?
A: reversible covalent

Q: And the residence time [2]?
A: 224 min

Q: What about the koff [2] of the same compound?
A: 7.5e-05 s⁻¹

Q: And the half-life [2]?
A: 2.593 h

Q: What about the kinact/KI [3] of the same compound?
A: 333000 M⁻¹ s⁻¹

Q: What about the Ki [3] of the same compound?
A: 17 nM

Q: What about the kinact [3] of the same compound?
A: 0.00566 s⁻¹

Q: For `CCN1C(=O)[C@@H](NC(=O)c2cccc(C(F)(F)F)c2)[C@@H](c2ccc(F)cc2)c2c(CN(C)C#N)nn(-c3ccccc3)c21` [Compound I-92], which “% Adduct Formation” value [1] is on record?
A: +++ (MS Emax % adduct formation greater than 80.0 and less than or equal to 100.0)

Q: Which “% Adduct Formation” value [1] does the source give for `CCN1C(=O)[C@@H](NC(=O)c2cccc(C(F)(F)F)c2)[C@@H](c2ccc(F)cc2)c2c(C(=O)N3CCC[C@H]3C#N)nn(-c3ccccc3)c21` [Compound I-278] here?
A: +++ (MS Emax % adduct formation greater than 80.0 and less than or equal to 100.0)

Q: With `CCN1C(=O)[C@@H](NC(=O)c2cccc(C(F)(F)F)c2)[C@@H](c2ccc(F)cc2)c2c(C(=O)N(C)[C@@H](C#N)CCN(C)C)nn(C3CCOCC3)c21` [Compound I-369] as the compound, how does the “% Adduct Formation” value [1] read?
A: +++ (MS Emax % adduct formation greater than 80.0 and less than or equal to 100.0)

Q: What about the Category [2] of the same compound?
A: fast reversible

Q: And the residence time [2]?
A: 39.4 min

Q: And the koff [2]?
A: 0.000425 s⁻¹

Q: And the half-life [2]?
A: 0.455 h

Q: And the kinact/KI [3]?
A: 11700 M⁻¹ s⁻¹

Q: What about the Ki [3] of the same compound?
A: 2 nM

Q: What about the kinact [3] of the same compound?
A: 2.17e-05 s⁻¹

Q: For `CCN1C(=O)[C@@H](NC(=O)c2cccc(C(F)(F)F)c2)[C@@H](C2CC2)c2c(C(=O)N3[C@H](C#N)C[C@H]4C[C@H]43)nn(C3CCOCC3)c21` [Compound I-256, N-((4S,5S)-3-((1R,3S,5R)-3-cyano-2-azabicyclo[3.1.0]hexane-2-carbonyl)-4-cyclopropyl-7-ethyl-6-oxo-1-(tetrahydro-2H-pyran-4-yl)-4,5,6,7-tetrahydro-1H-pyrazolo[3,4-b]pyridin-5-yl)-3-(trifluoromethyl)benzamide], which “% Adduct Formation” value [1] is on record?
A: +++ (MS Emax % adduct formation greater than 80.0 and less than or equal to 100.0)

Q: What about the Category [2] of the same compound?
A: slow reversible

Q: And the residence time [2]?
A: 219 min

Q: And the koff [2]?
A: 7.96e-05 s⁻¹

Q: And the half-life [2]?
A: 2.535 h

Q: And the kinact/KI [3]?
A: 78300 M⁻¹ s⁻¹

Q: What about the Ki [3] of the same compound?
A: 99.4 nM

Q: And the kinact [3]?
A: 0.00783 s⁻¹

Q: Which “% Adduct Formation” value [1] does the source give for `CCN1C(=O)[C@@H](NC(=O)c2cccc(C(F)(F)F)c2)[C@@H](C2CC2)c2c(C(=O)N3C[C@H](F)C[C@H]3C#N)nn(C3CCOCC3)c21` [Compound I-372] here?
A: +++ (MS Emax % adduct formation greater than 80.0 and less than or equal to 100.0)

Q: And the kinact/KI [3]?
A: 13300 M⁻¹ s⁻¹

Q: And the Ki [3]?
A: 229 nM

Q: And the kinact [3]?
A: 0.00313 s⁻¹

Q: Which results are given for `CCN1C(=O)[C@@H](NC(=O)c2cccc(C(F)(F)F)c2)[C@@H](c2ccc(F)cc2)c2c([C@@H](C)NC#N)nn(-c3ccccc3)c21` [Compound I-73, N-((4S,5S)-3-((R)-1-cyanamidoethyl)-7-ethyl-4-(4-fluorophenyl)-6-oxo-1-phenyl-4,5,6,7-tetrahydro-1H-pyrazolo[3,4-b]pyridin-5-yl)-3-(trifluoromethyl)benzamide]?
A: % Adduct Formation [1]: +++ (MS Emax % adduct formation greater than 80.0 and less than or equal to 100.0); Category [2]: irreversible covalent; kinact/KI [3]: 83300 M⁻¹ s⁻¹; Ki [3]: 46.4 nM; kinact [3]: 0.00384 s⁻¹

Q: `CCN1C(=O)[C@@H](NC(=O)c2cccc(C(F)(F)F)c2)[C@@H](C2CC2)c2c(C(=O)N3CCNC[C@H]3C#N)nn(C3CCOCC3)c21` [Compound I-582] was tested. Which Category [2] did it give?
A: irreversible covalent

Q: Which “% Adduct Formation” value [1] does the source give for `CCN1C(=O)[C@@H](NC(=O)c2cccc(C(F)(F)F)c2)[C@@H](c2ccc(F)cc2)c2c(CNC(=O)/C=C/C(=O)OC)nn(-c3ccccc3)c21` (racemic) [Compound I-3] here?
A: +++ (MS Emax % adduct formation greater than 80.0 and less than or equal to 100.0)

Q: With `CCN1C(=O)[C@@H](NC(=O)c2cccc(C(F)(F)F)c2)[C@@H](c2ccc(F)cc2)c2c(C(=O)N3[C@H](C#N)C[C@H]4C[C@H]43)nn(-c3ccccc3)c21` [Compound I-277] as the compound, how does the “% Adduct Formation” value [1] read?
A: +++ (MS Emax % adduct formation greater than 80.0 and less than or equal to 100.0)

Q: Which “% Adduct Formation” value [1] does the source give for `CCN1C(=O)[C@@H](NC(=O)c2cccc(C(F)(F)F)c2)[C@@H](c2ccc(F)cc2)c2c(C(=O)NC3(C#N)CC3)nn(-c3ccccc3)c21` [Compound I-112] here?
A: +++ (MS Emax % adduct formation greater than 80.0 and less than or equal to 100.0)

Q: With `CCN1C(=O)[C@@H](NC(=O)c2cccc(C(F)(F)F)c2)[C@@H](c2ccc(F)cc2)c2c(CNC#N)nn(-c3ccccc3)c21` [Compound I-140, N-[(4S, 5S)-3-[(cyanoamino)methyl]-7-ethyl-4-(4-fluorophenyl)-6-oxo-1-phenyl-4,5-dihydropyrazolo[3,4-b]pyridine-5-yl]-3-(trifluoromethyl) benzamide] as the compound, how does the “% Adduct Formation” value [1] read?
A: +++ (MS Emax % adduct formation greater than 80.0 and less than or equal to 100.0)

Q: For `CCN1C(=O)[C@@H](NC(=O)c2cccc(C(F)(F)F)c2)[C@@H](C2CC2)c2c(C(=O)N3C[C@H](OC)C[C@H]3C#N)nn(C3CCOCC3)c21` [Compound I-377], which “% Adduct Formation” value [1] is on record?
A: +++ (MS Emax % adduct formation greater than 80.0 and less than or equal to 100.0)

Q: And the kinact/KI [3]?
A: 21700 M⁻¹ s⁻¹

Q: What about the Ki [3] of the same compound?
A: 161 nM

Q: What about the kinact [3] of the same compound?
A: 0.00354 s⁻¹

Q: Which results are given for `CCN1C(=O)[C@@H](NC(=O)c2cccc(C(F)(F)F)c2)[C@@H](C2CC2)c2c(C(=O)N3CCS(=O)(=O)C[C@H]3C#N)nn(C3CCOCC3)c21` (mixture of isomers) [Compound I-379]?
A: % Adduct Formation [1]: +++ (MS Emax % adduct formation greater than 80.0 and less than or equal to 100.0); Category [2]: reversible covalent; residence time [2]: 78.9 min; koff [2]: 0.000211 s⁻¹; half-life [2]: 0.9115 h

Q: How did the “% Adduct Formation” value [1] turn out when `CCN1C(=O)[C@@H](NC(=O)c2cccc(C(F)(F)F)c2)[C@@H](c2ccc(F)cc2)c2c(C(=O)N3CCC[C@H]3C#N)nn(-c3ccccc3)c21` (mixture of isomers) [Compound I-34] was run?
A: +++ (MS Emax % adduct formation greater than 80.0 and less than or equal to 100.0)

Q: `CCN1C(=O)[C@@H](NC(=O)c2cccc(C(F)(F)F)c2)[C@@H](C2CC2)c2c(C(=O)N3CS(=O)(=O)C[C@H]3C#N)nn(C3CCOCC3)c21` [Compound I-617] was tested. Which Category [2] did it give?
A: fast reversible

Q: And the residence time [2]?
A: 66.3 min

Q: What about the koff [2] of the same compound?
A: 0.000251 s⁻¹

Q: And the half-life [2]?
A: 0.7658 h

Q: `CCN1C(=O)[C@@H](NC(=O)c2cccc(C(F)(F)F)c2)[C@@H](c2ccc(F)cc2)c2c(C(=O)N3CCNCC3C#N)nn(C3CCOCC3)c21` (some centres unmarked) [Compound I-334] was tested. Which “% Adduct Formation” value [1] did it give?
A: +++ (MS Emax % adduct formation greater than 80.0 and less than or equal to 100.0)
